Assays:
[1] = target: PB2 cap binding domain (CBD) of an avian H5N1 influenza virus (Influenza A virus, UniProt Q9Q0V1); assay: biochemical; conditions: Biacore KD
[2] = target: T1, influenza A virus (IAV) PA-Nter fragment (amino acids 1-209) (Influenza A virus, UniProt P31343); assay: biochemical; conditions: FRET IC50
T1 construct: PA-Nter fragment (amino acids 1-209); made in house

[3] = test system: influenza A virus (IAV) A/Aichi/2/68 (H3N2); assay: microbe, parasite or virus in culture; format: cell-based, influenza A virus A/Aichi/2/68 (H3N2) on MDCK cells; conditions: H3N2, MDCK; for IC50: 48 h, read-out: CPE IC50; for inhibition at 50 µM: read-out: CPE % inhib
[4] = target: whole RNP complex, IAV strain A/PR/8/34 (Influenza A virus, UniProt P03428+P03433); assay: biochemical

PB2 cap binding domain (CBD) of an avian H5N1 influenza virus, sequence (Q9Q0V1 318-483 limits assumed): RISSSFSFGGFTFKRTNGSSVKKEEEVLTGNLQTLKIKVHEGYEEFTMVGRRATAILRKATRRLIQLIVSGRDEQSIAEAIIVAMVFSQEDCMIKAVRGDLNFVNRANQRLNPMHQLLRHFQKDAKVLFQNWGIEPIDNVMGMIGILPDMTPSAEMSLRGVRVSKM

Row | Compound | Kd [1] | IC50 [2] | IC50 [3] | IC50 [4] | inhibition at 50 µM [3]
1 | CC(C)N1CCn2c(CNc3nccc4[nH]ncc34)cc(=O)c(O)c2C1=O | > 100 µM | 0.4 µM | > 50 µM |  | 
2 | CC(C)N1CCn2c(CNc3cccc4n[nH]c(=O)n34)cc(=O)c(O)c2C1=O | 99.3 µM | 0.936 µM | > 50 µM |  | 
3 | CC(C)N1CCn2c(CNc3cc4[nH]ncc4c(Cl)n3)cc(=O)c(O)c2C1=O | 305 µM | 0.848 µM | > 50 µM |  | 
4 | CC(C)N1CCn2c(CNCCNc3nccc4[nH]ncc34)cc(=O)c(O)c2C1=O |  | 1.46 µM | > 50 µM |  | 
5 | CC(C)N1CCn2c(CNCCNc3cc4[nH]ccc4c(Cl)n3)cc(=O)c(O)c2C1=O |  | 0.58 µM | > 50 µM |  | 
6 | CC(C)N1CCn2c(CNC(=O)c3ccc4n[nH]c(=O)n4c3)cc(=O)c(O)c2C1=O | 187 µM | 0.87 µM | > 50 µM |  | 
7 | CC(C)N1CCn2c(CNC(=O)c3cccn4c(=O)[nH]nc34)cc(=O)c(O)c2C1=O | > 50 µM | 0.28 µM | > 50 µM |  | 
8 | CC(C)[C@H](NC(=O)c1cccn2c(=O)[nH]nc12)c1cc(=O)c(O)c2n1CCN(C(C)C)C2=O | 163 µM | 0.83 µM | > 50 µM |  | 
9 | CC(C)N1CCn2c(CNC(=O)[C@H](Cc3cccc(Cl)c3)NC(=O)c3cccn4c(=O)[nH]nc34)cc(=O)c(O)c2C1=O | 475 µM | 0.291 µM | 31.2 µM |  | 
10 | CCC(NC(=O)c1cccn2c(=O)[nH]nc12)C(=O)NCc1cc(=O)c(O)c2n1CCN(C(C)C)C2=O (stereo not shown) | 6.3 µM | 0.43 µM | > 50 µM |  | 
11 | CC(C)N1CCn2c(CNC(=O)C3(NC(=O)c4cccn5c(=O)[nH]nc45)CCCCC3)cc(=O)c(O)c2C1=O | > 25 µM | 2.84 µM | > 50 µM |  | 
12 | CC(C)N1CCn2c(CNC(=O)CNC(=O)c3ccc4n[nH]c(=O)n4c3)cc(=O)c(O)c2C1=O | 14.1 µM | 1.94 µM | > 50 µM |  | 
13 | CC(C)N1CCn2c(CNC(=O)[C@H](NC(=O)c3cccn4c(=O)[nH]nc34)c3ccccc3)cc(=O)c(O)c2C1=O | > 100 µM | 9.87 µM | > 50 µM |  | 
14 | CC(C)N1CCn2c(CNC(=O)c3cccc(NC(=O)c4ccc5n[nH]c(=O)n5c4)c3)cc(=O)c(O)c2C1=O | 21.9 µM | 1.66 µM | 35.1 µM |  | 
15 | CC(C)N1CCn2c(CNC(=O)[C@@H](Cc3cccc(Cl)c3)NC(=O)c3ccc4n[nH]c(=O)n4c3)cc(=O)c(O)c2C1=O | > 100 µM | 2.88 µM | 51.7 µM |  | 
16 | CC(C)N1CCn2c(CNC(=O)c3cccc(Nc4nccc5[nH]ncc45)c3)cc(=O)c(O)c2C1=O | 97.6 µM | 0.55 µM | 21.8 µM |  | 
17 | CC(C)N1CCn2c(CNC(=O)[C@H](NC(=O)c3ccc4n[nH]c(=O)n4c3)c3ccccc3)cc(=O)c(O)c2C1=O | > 100 µM | 1.45 µM | > 50 µM |  | 
18 | CC(C)N1CCn2c(CNC(=O)c3n[nH]c4ncccc34)cc(=O)c(O)c2C1=O | > 100 µM | 0.4 µM | > 50 µM |  | 
19 | CC(C)N1CCn2c(CNC(=O)[C@@H](Cc3cccc(Cl)c3)NC(=O)c3n[nH]c4ncccc34)cc(=O)c(O)c2C1=O | 55.1 µM | 1.09 µM | > 50 µM |  | 
20 | CC(C)N1CCn2c(CNCCOC(=O)c3cccn4c(=O)[nH]nc34)cc(=O)c(O)c2C1=O | > 100 µM | 1.41 µM | > 50 µM |  | 
21 | CC(C)N1CCn2c(COC(=O)c3cccn4c(=O)[nH]nc34)cc(=O)c(O)c2C1=O | > 100 µM | 0.41 µM | > 50 µM |  | 
22 | CC(C)N1CCn2c(COCCOc3nccc4[nH]ncc34)cc(=O)c(O)c2C1=O | > 100 µM | 0.37 µM | > 50 µM |  | 

Row | Compound | Kd [1] | IC50 [2] | IC50 [3] | IC50 [4] | inhibition at 50 µM [3]
23 | CC(C)[C@H](Nc1nc(-c2n[nH]c3ncc(F)cc23)ncc1F)C(=O)NCc1cc(=O)c(O)c2n1CCN(C(C)C)C2=O | 10 µM | 8.04 µM | > 50 µM |  | 
24 | CCC(Nc1nc(-c2n[nH]c3ncc(F)cc23)ncc1F)C(=O)NCc1cc(=O)c(O)c2n1CCN(C(C)C)C2=O (stereo not shown) |  | 12.2 µM | > 50 µM |  | 
25 | CC(C)N1CCn2c(CNC(=O)CCCCCNc3nc(-c4n[nH]c5ncc(F)cc45)ncc3F)cc(=O)c(O)c2C1=O | 0.42 µM | 19.7 µM | 15 µM |  | 
26 | CC(C)N1CCn2c(CNC(=O)CC(Nc3nc(-c4n[nH]c5ncc(F)cc45)ncc3F)C3CC3)cc(=O)c(O)c2C1=O (stereo not shown) | 8.16 µM | 19.7 µM | 48 µM |  | 
27 | CC(C)N1CCn2c(CNC(=O)c3c[nH]c4ncc(C5CC5)nc34)cc(=O)c(O)c2C1=O | 12.8 µM | 0.87 µM | > 25 µM |  | 
28 | CC(C)N1CCn2c(COC(=O)c3c[nH]c4ncc(C5CC5)nc34)cc(=O)c(O)c2C1=O | 9.3 µM | 0.49 µM | 68.7 µM |  | 
29 | CC(C)[C@H](NC(=O)c1c[nH]c2ncc(C3CC3)nc12)C(=O)NCc1cc(=O)c(O)c2n1CCN(C(C)C)C2=O | 16.8 µM | 0.75 µM | 42 µM |  | 
30 | CC(C)N1CCn2c(CNC(=O)CCCCCNC(=O)c3c[nH]c4ncc(C5CC5)nc34)cc(=O)c(O)c2C1=O | 6.36 µM | 0.57 µM | 31.8 µM |  | 
31 | CC(C)N1CCn2c(CNC(=O)CNC(=O)c3c[nH]c4ncc(C5CC5)nc34)cc(=O)c(O)c2C1=O | 3.96 µM | 0.27 µM | > 50 µM |  | 
32 | CC(C)N1CCn2c(CNC(=O)[C@H]3CCC[C@@H](Nc4nc(-c5n[nH]c6ncc(F)cc56)ncc4F)C3)cc(=O)c(O)c2C1=O |  | > 25 µM | 15.1 µM |  | 
33 | CCC(NC(=O)c1c[nH]c2ncc(C3CC3)nc12)C(=O)NCc1cc(=O)c(O)c2n1CCN(C(C)C)C2=O (stereo not shown) |  | 0.46 µM | > 50 µM |  | 
34 | CC(C)N1CCn2c(CNC(=O)[C@H](NC(=O)c3c[nH]c4ncc(C5CC5)nc34)c3ccccc3)cc(=O)c(O)c2C1=O |  | 2.34 µM | 8.2 µM |  | 
35 | CC(C)N1CCn2c(CNC(=O)C3(NC(=O)c4c[nH]c5ncc(C6CC6)nc45)CCCCC3)cc(=O)c(O)c2C1=O |  |  | > 50 µM | 0.38 µM | 
36 | CC(C)[C@H](Nc1nc(C2=CN3C(=O)N=NC3C=C2)ncc1F)C(=O)NCc1cc(=O)c(O)c2n1CCN(C(C)C)C2=O (stereo partly shown) |  |  | > 50 µM | > 50 µM | 
37 | CC(C)N1CCn2c(CNC(=O)CCCCCNc3nc(C4=CN5C(=O)N=NC5C=C4)ncc3F)cc(=O)c(O)c2C1=O (stereo not shown) |  |  | > 25 µM | 5.35 µM | 
38 | CC(C)[C@@H](CC(=O)NCc1cc(=O)c(O)c2n1CCN(C(C)C)C2=O)Nc1nc(C2=CN3C(=O)N=NC3C=C2)ncc1F (stereo partly shown) |  |  | > 1.28 µM | 8.15 µM | 
39 | CC(C)N1CCn2c(CNC(=O)C[C@H](NC(=O)c3c[nH]c4ncc(C5CC5)nc34)c3ccccc3)cc(=O)c(O)c2C1=O |  |  | > 33.7 µM | 1.53 µM | 
40 | CC(C)N1CCn2c(CNC(=O)[C@H](NC(=O)c3c[nH]c4ncc(C5CC5)nc34)C3CC3)cc(=O)c(O)c2C1=O |  |  |  | 0.22 µM | 47%
41 | CC(C)N1CCn2c(CNC(=O)CC(NC(=O)c3c[nH]c4ncc(C5CC5)nc34)C3CC3)cc(=O)c(O)c2C1=O (stereo not shown) |  |  |  | 0.14 µM | 10%
42 | CC(C)N1CCn2c(CNC(=O)c3cccc(NC(=O)c4n[nH]c5ncccc45)c3)cc(=O)c(O)c2C1=O [drawing 28] | 26.3 µM | 1.51 µM | > 50 µM |  | 
43 | CC(C)N1CCn2c(CNC(=O)c3cccc(NC(=O)c4n[nH]c5ncccc45)c3)cc(=O)c(O)c2C1=O [drawing 29] | 19.6 µM | 1.22 µM |  |  | 

Source: patent US9359351B2, “Cap/endo dual inhibitors and their use in the treatment, amelioration or prevention of a viral disease” (priority 2014, dated 2016)
